# According to patent US11725036B2, “Modified lipidated relaxin B chain peptides and their therapeutic use” (Sanofi, priority 2018, dated 2023):
# Starred links: 1 amine or outer side, 2 acyl side, 3 side chain; linkers in the order of their positions; H or OH if unused. Non-standard residues stand in square brackets, D forms with d. Residues, ends and D or L forms follow the SMILES beside them. Groups on a side chain read outwards from the residue. *: point of attachment. X7 = CCCCCCCCCCCCCCCC(=O)N[C@@H](CCC(=O)N[C@@H](CCC(=O)N[C@@H](CCC(=O)NCCCOCCOCCOCCCNC(=O)COCC(=O)NCCCOCCOCCOCCCNC(=O)COCC(=O)NCCCOCCOCCOCCCNC(=O)COCC(=O)*)C(=O)O)C(=O)O)C(=O)O; X1 = CCCCCCCCCCCCCCCC(=O)N[C@@H](CCC(=O)N[C@@H](CCC(=O)N[C@@H](CCC(=O)NCCCOCCOCCOCCCNC(=O)CCC(=O)NCCCOCCOCCOCCCNC(=O)CCC(=O)NCCCOCCOCCOCCCN*)C(=O)O)C(=O)O)C(=O)O; X9 = CCCCCCCCCCCCCCCC(=O)N[C@@H](CCC(=O)N[C@@H](CCC(=O)NCCCOCCOCCOCCCNC(=O)CCC(=O)NCCCOCCOCCOCCCN*)C(=O)O)C(=O)O; γGlu = O=C(O)[C@H](CCC(=O)[*:2])N[*:1]; Palmitoyl = CCCCCCCCCCCCCCCC(=O)*; αMeF = C[C@](N)(Cc1ccccc1)C(=O)O; Suc = O=C(CCC(=O)[*:2])[*:1]; αMeK = C[C@](N)(CCCCN)C(=O)O; AEEA = NCCOCCOCC(=O)O; Aib = CC(C)(N)C(=O)O
# Molecular target: T1, RXFP1 (Homo sapiens, UniProt Q9HBX9)
# T1 construct: OVCAR5 cells expressing endogenous RXFP1; endogenous in cells; host or cells: OVCAR5
# T1 sequence (Q9HBX9 1-757): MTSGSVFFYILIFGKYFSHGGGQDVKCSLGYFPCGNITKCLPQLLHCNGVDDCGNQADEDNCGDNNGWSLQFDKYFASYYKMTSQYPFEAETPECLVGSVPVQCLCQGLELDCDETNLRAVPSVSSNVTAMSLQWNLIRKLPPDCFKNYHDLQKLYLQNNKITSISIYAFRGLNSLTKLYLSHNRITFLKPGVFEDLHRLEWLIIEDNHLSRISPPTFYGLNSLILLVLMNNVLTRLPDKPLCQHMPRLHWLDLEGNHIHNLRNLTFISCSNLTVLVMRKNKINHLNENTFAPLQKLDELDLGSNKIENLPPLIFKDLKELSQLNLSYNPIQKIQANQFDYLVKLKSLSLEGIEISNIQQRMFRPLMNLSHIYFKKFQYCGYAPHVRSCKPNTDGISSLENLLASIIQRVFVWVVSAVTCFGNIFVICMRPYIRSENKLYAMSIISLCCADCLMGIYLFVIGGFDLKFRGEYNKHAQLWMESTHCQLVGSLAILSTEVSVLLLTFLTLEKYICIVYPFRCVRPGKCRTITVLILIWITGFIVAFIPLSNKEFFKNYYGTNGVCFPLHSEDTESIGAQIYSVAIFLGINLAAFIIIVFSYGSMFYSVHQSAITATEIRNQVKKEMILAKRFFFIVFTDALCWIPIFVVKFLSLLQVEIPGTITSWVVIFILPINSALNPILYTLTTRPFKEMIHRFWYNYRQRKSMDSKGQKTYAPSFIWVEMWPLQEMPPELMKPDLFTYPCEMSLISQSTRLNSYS
# Experiment: OVCAR5 cAMP assay (HTRF)
# Assay type: cell-based
# Settings: for EC50: OVCAR 5 cells expressing endogenous RXFP1, cAMP readout; for Emax: OVCAR 5 cells, maximal cAMP relative to H2-relaxin
# Text: OVCAR5 cells expressing endogenous RXFP1 were used to test RXP1 agonist properties of peptides of the invention, and in particular of the peptides of sequence SEQ ID NO: 1-97.
# Since RXFP1 is a Gs coupled GPCR, cAMP was used as readout of RXFP1 activation.
# Isobutyl Methyl Xanthine (IBMX) was used to inhibit phosphodiesterase activity facilitating cAMP measurements. HTRF (Homogenous Time Resolved Fluorescence) technology was used to detect cAMP due to its great sensitivity.
# In summary, OVCAR5 were grown in regular medium (RPMI) containing 10% fetal calf serum (FCS) and 1% antibiotics (penicillin/streptomycin).
# Before the experiments, cells were detached with accutase and incubated for 40 minutes at 37° C. with 1 mM (3-isobutyl-1-methylxanthine) IBMX.
# Cells were then distributed in 384 black well plates containing increasing concentrations of the different peptides in a fix volume of medium (without FCS).
# After an incubation of 30 min at 37° C. in an humid incubator in 5% CO2, the reaction was stopped by adding a fixed volume of a solution containing a lysis buffer and cAMP-D2 (cAMP labeled with the dye d2) and the anti cAMP antibody linked to Europium and used for cAMP detection.
# Readout of the experiment were performed on a fluorimeter allowing HTRF measurement. Activation curves were generated by plotting the intracellular value of cAMP versus log 10 of the compound concentration.
# The 50% activation concentration (EC50) was calculated by nonlinear regression using the sigmoidal dose-response (variable slope) equation with Prism 5 software.
# Emax % was determined as the maximal intracellular value of cAMP for test compound (upper limit of cAMP vs concentration curve) divided by the maximal intracellular value of cAMP for H2-relaxin determined in the same test occasion multiplied by 100. Emax %=100×[cAMPtest cpd]/[cAMPH2-Rlx]
EC50 [nM],Emax [%],Structure (SMILES)
1.45,97,CCCCCCCCCCCCCCCC(=O)N[C@@H](CCC(=O)N[C@@H](CCC(=O)N[C@@H](CCC(=O)NCCCOCCOCCOCCCNC(=O)CCC(=O)NCCCOCCOCCOCCCNC(=O)CCC(=O)NCCCOCCOCCOCCCNC(=O)CCC(=O)NCCCC[C@H](NC(=O)CNC(=O)[C@H](CCC(=O)O)NC(=O)C(C)(C)NC(=O)C(C)(C)NC(=O)[C@@H](NC(=O)[C@H](CCCCNC(C)=O)NC(=O)[C@H](C)NC(=O)[C@H](CCCNC(=N)N)NC(=O)[C@@H](NC(=O)[C@H](CCCCN)NC(=O)[C@H](CCC(=O)O)NC(=O)[C@H](CCCNC(=N)N)NC(=O)CNC(=O)[C@H](CCC(=O)O)NC(=O)[C@H](CC(C)C)NC(C)=O)C(C)C)[C@@H](C)CC)C(=O)N[C@@H](CO)C(=O)N[C@@H](CCC(N)=O)C(=O)N[C@@H](Cc1c[nH]c2ccccc12)C(=O)N[C@@H](CO)C(=O)NC(C)(C)C(=O)N[C@@H](CCCNC(=N)N)C(=O)N[C@@H](CCCCN)C(=O)N[C@@H](CCCCNC(C)=O)C(N)=O)C(=O)O)C(=O)O)C(=O)O [compound 63] (Ac-LEGREKVRAK(Ac)I[Aib][Aib]EGK([Suc-X1])SQWS[Aib]RKK(Ac)-NH2)
0.1,97,CCCCCCCCCCCCCCCC(=O)N[C@@H](CCC(=O)N[C@@H](CCC(=O)N[C@@H](CCC(=O)NCCCOCCOCCOCCCNC(=O)CCC(=O)NCCCOCCOCCOCCCNC(=O)CCC(=O)NCCCOCCOCCOCCCNC(=O)CCC(=O)NCCCC[C@H](NC(=O)CNC(=O)[C@H](CCC(=O)O)NC(=O)C(C)(C)NC(=O)C(C)(C)NC(=O)[C@@H](NC(=O)[C@H](CCCCNC(C)=O)NC(=O)[C@H](C)NC(=O)[C@H](CCCNC(=N)N)NC(=O)[C@@H](NC(=O)[C@H](CCCCN)NC(=O)[C@H](CCC(=O)O)NC(=O)[C@H](CCCNC(=N)N)NC(=O)CNC(=O)[C@H](CCC(=O)O)NC(=O)[C@H](CC(C)C)NC(C)=O)C(C)C)[C@@H](C)CC)C(=O)N[C@@H](CO)C(=O)N[C@H](C(=O)N[C@@](C)(Cc1ccccc1)C(=O)N[C@@H](CO)C(=O)N[C@@H](CCCNC(=N)N)C(=O)N[C@@H](CCCNC(=N)N)C(=O)N[C@@H](C)C(=O)N[C@@H](CCCCNC(C)=O)C(N)=O)[C@@H](C)O)C(=O)O)C(=O)O)C(=O)O [compound 89] (Ac-LEGREKVRAK(Ac)I[Aib][Aib]EGK([Suc-X1])ST[αMeF]SRRAK(Ac)-NH2)
0.77,86,CCCCCCCCCCCCCCCC(=O)N[C@@H](CCC(=O)N[C@@H](CCC(=O)N[C@@H](CCC(=O)NCCCOCCOCCOCCCNC(=O)CCC(=O)NCCCOCCOCCOCCCNC(=O)CCC(=O)NCCCOCCOCCOCCCNC(=O)CCC(=O)NCCCC[C@H](NC(=O)CNC(=O)[C@H](CCC(=O)O)NC(=O)C(C)(C)NC(=O)C(C)(C)NC(=O)[C@@H](NC(=O)[C@H](CCCCNC(C)=O)NC(=O)[C@H](C)NC(=O)[C@H](CCCNC(=N)N)NC(=O)[C@@H](NC(=O)[C@H](CCCCN)NC(=O)[C@H](CCC(=O)O)NC(=O)[C@H](CCCNC(=N)N)NC(=O)CNC(=O)[C@H](CCC(=O)O)NC(=O)[C@H](CC(C)C)NC(C)=O)C(C)C)[C@@H](C)CC)C(=O)N[C@@H](CO)C(=O)N[C@H](C(=O)N[C@@H](Cc1ccccc1)C(=O)N[C@H](C(=O)N[C@@H](CCCNC(=N)N)C(=O)N[C@@H](CCCNC(=N)N)C(=O)N[C@@H](C)C(=O)N[C@@H](CCCCNC(C)=O)C(N)=O)[C@@H](C)O)[C@@H](C)O)C(=O)O)C(=O)O)C(=O)O [compound 93] (Ac-LEGREKVRAK(Ac)I[Aib][Aib]EGK([Suc-X1])STFTRRAK(Ac)-NH2)
1,92,CCCCCCCCCCCCCCCC(=O)N[C@@H](CCC(=O)N[C@@H](CCC(=O)N[C@@H](CCC(=O)NCCCOCCOCCOCCCNC(=O)COCC(=O)NCCCOCCOCCOCCCNC(=O)COCC(=O)NCCCOCCOCCOCCCNC(=O)COCC(=O)NCCCC[C@H](NC(=O)CNC(=O)[C@H](CCC(=O)O)NC(=O)C(C)(C)NC(=O)C(C)(C)NC(=O)[C@@H](NC(=O)[C@H](CCCCNC(C)=O)NC(=O)[C@H](C)NC(=O)[C@H](CCCNC(=N)N)NC(=O)[C@@H](NC(=O)[C@H](CCCCN)NC(=O)[C@H](CCC(=O)O)NC(=O)[C@H](CCCNC(=N)N)NC(=O)CNC(=O)[C@H](CCC(=O)O)NC(=O)[C@H](CC(C)C)NC(C)=O)C(C)C)[C@@H](C)CC)C(=O)N[C@@H](CO)C(=O)N[C@H](C(=O)N[C@@H](Cc1ccccc1)C(=O)N[C@@H](CO)C(=O)N[C@@](C)(CCCCN)C(=O)N[C@@H](CCCNC(=N)N)C(=O)N[C@@H](C)C(=O)N[C@@H](CCCCNC(C)=O)C(N)=O)[C@@H](C)O)C(=O)O)C(=O)O)C(=O)O [compound 22] (Ac-LEGREKVRAK(Ac)I[Aib][Aib]EGK(X7)STFS[αMeK]RAK(Ac)-NH2)
0.52,95,CCCCCCCCCCCCCCCC(=O)N[C@@H](CCC(=O)N[C@@H](CCC(=O)N[C@@H](CCC(=O)NCCCOCCOCCOCCCNC(=O)CCC(=O)NCCCOCCOCCOCCCNC(=O)CCC(=O)NCCCOCCOCCOCCCNC(=O)CCC(=O)NCCCC[C@H](NC(=O)CNC(=O)[C@H](CCC(=O)O)NC(=O)C(C)(C)NC(=O)C(C)(C)NC(=O)[C@@H](NC(=O)[C@H](CCCCNC(C)=O)NC(=O)[C@H](C)NC(=O)[C@H](CCCNC(=N)N)NC(=O)[C@@H](NC(=O)[C@H](CCCCN)NC(=O)[C@H](CCC(=O)O)NC(=O)[C@H](CCCNC(=N)N)NC(=O)CNC(=O)[C@H](CCC(=O)O)NC(=O)[C@H](CC(C)C)NC(C)=O)C(C)C)[C@@H](C)CC)C(=O)N[C@@H](CO)C(=O)N[C@@H](CCCNC(=N)N)C(=O)N[C@@H](Cc1c[nH]c2ccccc12)C(=O)N[C@@H](CO)C(=O)NC(C)(C)C(=O)N[C@@H](CCCNC(=N)N)C(=O)N[C@@H](CCCCN)C(=O)N[C@@H](CCCCNC(C)=O)C(N)=O)C(=O)O)C(=O)O)C(=O)O [compound 64] (Ac-LEGREKVRAK(Ac)I[Aib][Aib]EGK([Suc-X1])SRWS[Aib]RKK(Ac)-NH2)
0.7,93,CCCCCCCCCCCCCCCC(=O)N[C@@H](CCC(=O)N[C@@H](CCC(=O)NCCCOCCOCCOCCCNC(=O)CCC(=O)NCCCOCCOCCOCCCNC(=O)CCC(=O)NCCCC[C@H](NC(=O)CNC(=O)[C@H](CCC(=O)O)NC(=O)C(C)(C)NC(=O)C(C)(C)NC(=O)[C@@H](NC(=O)[C@H](CCCCNC(C)=O)NC(=O)[C@H](C)NC(=O)[C@H](CCCNC(=N)N)NC(=O)[C@@H](NC(=O)[C@H](CCCCN)NC(=O)[C@H](CCC(=O)O)NC(=O)[C@H](CCCNC(=N)N)NC(=O)CNC(=O)[C@H](CCC(=O)O)NC(=O)[C@H](CC(C)C)NC(C)=O)C(C)C)[C@@H](C)CC)C(=O)N[C@@H](CO)C(=O)N[C@H](C(=O)N[C@@H](Cc1ccccc1)C(=O)N[C@@H](CO)C(=O)N[C@@](C)(CCCCN)C(=O)N[C@@H](CCCNC(=N)N)C(=O)N[C@@H](C)C(=O)N[C@@H](CCCCNC(C)=O)C(N)=O)[C@@H](C)O)C(=O)O)C(=O)O [compound 9] (Ac-LEGREKVRAK(Ac)I[Aib][Aib]EGK([Suc-X9])STFS[αMeK]RAK(Ac)-NH2)
1.86,92,CCCCCCCCCCCCCCCC(=O)N[C@@H](CCC(=O)N[C@@H](CCC(=O)N[C@@H](CCC(=O)NCCOCCOCC(=O)NCCOCCOCC(=O)NCCOCCOCC(=O)NCCOCCOCC(=O)NCCCC[C@H](NC(=O)CNC(=O)[C@H](CCC(=O)O)NC(=O)C(C)(C)NC(=O)C(C)(C)NC(=O)[C@@H](NC(=O)[C@H](CCCCNC(C)=O)NC(=O)[C@H](C)NC(=O)[C@H](CCCNC(=N)N)NC(=O)[C@@H](NC(=O)[C@H](CCCCN)NC(=O)[C@H](CCC(=O)O)NC(=O)[C@H](CCCNC(=N)N)NC(=O)CNC(=O)[C@H](CCC(=O)O)NC(=O)[C@H](CC(C)C)NC(C)=O)C(C)C)[C@@H](C)CC)C(=O)N[C@@H](CO)C(=O)N[C@H](C(=O)N[C@@H](Cc1ccccc1)C(=O)N[C@@H](CO)C(=O)N[C@@](C)(CCCCN)C(=O)N[C@@H](CCCNC(=N)N)C(=O)N[C@@H](C)C(=O)N[C@@H](CCCCNC(C)=O)C(N)=O)[C@@H](C)O)C(=O)O)C(=O)O)C(=O)O [compound 8] (Ac-LEGREKVRAK(Ac)I[Aib][Aib]EGK([AEEA-AEEA-AEEA-AEEA-γGlu-γGlu-γGlu-Palmitoyl])STFS[αMeK]RAK(Ac)-NH2)
